Experimental data from patent US20100279413A1, “APPLICATIONS OF UBIQUINONES AND UBIQUINOLS” (ZYMES, LLC, priority 2008, published 2010).

Legend:
cultured fetal rat DRGs = test: CoQ10 / HQO dose response: neurite growth and survival of cultured fetal rat DRGs; type: cell-based; settings: for mean neurite length: day 16, controls 4.84 mm, p<0.0001
Protocol: In fact, by day 11, the length of neurites around DRGs was longer if the DRGs were cultured with CoQ10 (concentrations ranged from 0.1-50 uM) compared with control DRGs, p<0.0001 for all. FIG. 1A, 1B, 1C.
The aim of the second experiment was to confirm that exposure to 50 uM CoQ10 is not toxic to cultured fetal rat DRGs and also to see if even higher concentrations may be used safely. Eight DRGs (2 plates of 4 DRGs each) were cultured under each of the following conditions: • Control • 50 uM CoQ10 • 75 uM CoQ10 • 100 uM CoQ10
This experiment was carried on for 22 days, which is about as long as DRGs can be sustained in this model, even under control conditions. The experiment was continued for this time period to confirm that CoQ10 remains non-toxic in this model over time.
Neurite lengths around each DRG were measured at four representative points (giving a total of 32 measures at each exposure concentration at each time point) on days 1, 2, 5, 8, 12, 16 and 22.
A third experiment measured growth of DRG's with varying doses of HQO™, 0.1, 10, 100 uM CoQ10. This experiment was done in DRG's isolated from a new rat, which accounts for the difference in neurite length compared to experiments 1 and 2. […] (FIG. 1E)

[1] = system: cultured fetal rat dorsal root ganglia (DRGs); test: In vitro model of ATN: NRTI (d4T/ddI) neurotoxicity in cultured fetal rat DRGs; type: cell-based
Protocol: Objective: To examine the safety and preventative efficacy of HQO™ using cultured fetal rat dorsal root ganglia (DRGs) as an in vitro model of ATN.
In a separate experiment, DRGs were exposed to a higher dose (50 μM) of d4T alone or with 10 or 100 nM HQO™.

For COC1=C(OC)C(=O)C(C/C=C(\C)CC/C=C(\C)CC/C=C(\C)CC/C=C(\C)CC/C=C(\C)CC/C=C(\C)CC/C=C(\C)CC/C=C(\C)CC/C=C(\C)CCC=C(C)C)=C(C)C1=O [CoQ10, coenzyme Q10], the “length of neurites around DRGs compared with control DRGs” value (cultured fetal rat DRGs; day 11, 0.1-50 uM, p<0.0001 for all) was “longer”, the mean neurite length (cultured fetal rat DRGs; 75 uM (non-viable DRG excluded)) was 6.20 mm and the mean neurite length (cultured fetal rat DRGs; 100 uM) was 6.07 mm. For the same compound, the “toxicity in cultured fetal rat DRGs” value (cultured fetal rat DRGs; first dose finding experiment, concentrations up to 50 uM) was “no evidence of toxicity” and the “toxicity in cultured fetal rat DRGs” value (cultured fetal rat DRGs; second experiment, 50, 75, 100 uM, up to 22 days) was “no evidence of toxicity”.

In the case of CC(=O)O[C@H](CC(=O)[O-])C[N+](C)(C)C [LAC, L-acetyl carnitine], the “NRTI (ddI)-induced neurotoxicity of fetal rat DRGs” value ([1]; heading of Example 3, no data given) is reported as “Prevents”.

Cc1cn([C@H]2C=C[C@@H](CO)O2)c(=O)[nH]c1=O [d4T, stavudine] was tested, and the “toxicity in DRGs (NRTI alone)” value ([1]; 50 μM d4T alone, by day 8) was “evident”.
